From patent publication US20200123127A1, “REMOVAL OF SENESCENCE-ASSOCIATED MACROPHAGES” (EVERON BIOSCIENCES, INC., priority 2016, published 2020) come the findings set out here.

Entries after “also recorded” stand apart in the source; their conditions may differ. Read-outs that look alike come from different tables or passages of the source.

The test system of experiment [1] is adult rat dermal fibroblasts (RDF). The experiment can be described thus: Resazurin viability assay, senescent vs proliferating rat dermal fibroblasts. It is filed as cell-based. The following applies: for IC50: Rattus norvegicus, Fibroblast. The procedure:
Cytotoxicity of A1.1 analogs against bleomycin-induced senescent human NDFs and rat dermal fibroblasts (RDFs). Activity of analogs was assessed from dose-response curves against irradiation- or bleomycin-induced senescent and proliferating cells to calculate IC50s (uM). The fold difference of proliferating versus senescent cell IC50s was used to assess the level of specific anti-senescent activity of the compounds.
For generation senescent human neonatal dermal fibroblasts (NDFs) and adult rat dermal fibroblasts (RDFs), cells are treated at ˜10 ug/ml bleomycin for 3 days (for bleomycin-induced senescence) or irradiated once at 20 Gy using a gamma irradiator (Cs source), followed by at least 7 day recovery in fresh medium for induction of senescence. Senescent and non-senescent (proliferating) cells for each cell line are plated into 384-w plate, followed by 72 hour exposure to a dose titration of compounds. Viability measurements are estimated using the resazurin viability assay. Using GraphPad Prism 5, the IC50 values are calculated from the non-linear regression of log-transformed compound concentrations versus dose-response normalized to background and non-treated controls.
For orientation: The colour change of resazurin is a common sign of viable cells or microbes.

For a further experiment, the system named is SAMs. In words: SAM viability (CyQuant Direct / resazurin). It is filed as cell-based, mouse. Conditions: for SAM cell viability: 2.5 to 10 μM. As to the method: FIG. 8. Immunomodulatory regulation of p16(Ink4a) and SAβG in macrophages. Peritoneal lavage cells elicited by alginate-encapsulated SCs from p16^Ink4a/Luc mice were treated ex vivo with immunomodulatory agents for up to 72 hours. (A) mRNA expression of p16(Ink4a) and β-galactosidase (Glb1) in macrophages (relative to B2m expression) with or without LPS stimulation for 72 hours analyzed via qRT-PCR, normalized to non-treated controls. (B) Microphotograph of SAβG-stained adherence-selected macrophages with or without stimulation with LPS (1 ng/mL) for 72 hours (10× objective). (C&D) Kinetics of p16(Ink4a) promoter-dependent luciferase activity per cell with or without LPS stimulation (C) or IL-4 stimulation (D), normalized to activity from non-treated cells at time zero. Results are shown as the mean±standard deviation for at least 3 experiments. Statistical significance with respect to non-treated control at time zero is indicated. (E) Luciferase activity and (3-galactosidase activity (via 4-MUG hydrolysis) from proteose peptone-elicited lavage cells following stimulation with IL-4 (20 ng/mL) for 72 hours, normalized to non-treated controls. (F) Viability following 72 hour dose-response to JAK1/2 inhibitor Ruxolitinib in the presence or absence of IL-4 (10 ng/mL) stimulation, measured by CyQuant Direct DNA-based viability assay. Viability normalized to respective controls lacking Ruxolitinib. (G&H) Dose-response of STAT6 inhibitor AS1517499 against luciferase activity (G) and viability via CyQuant Direct assay (H) following 72 hour treatment in the presence and absence of IL-4 (10 ng/mL). Results normalized to respective controls (with or without IL-4) lacking STAT6 inhibitor. Statistical significance is calculated with respect to the difference between IL-4 stimulated and non-stimulated cells at each concentration of STAT6 inhibitor. (I) Relative luciferase activity per cell following repolarization with M1- and M2-inducing agents. Macrophages were left non-treated (NT) or treated with either LPS (1 ng/ml) or IL-4 (20 ng/ml) for 72 hours (days 1-3), as indicated. For each treatment set, samples were collected at 72 hours (no further treatment; days 4-6=x). Alternatively, cells were washed and placed in fresh medium (−), medium containing LPS (1 ng/mL) and IFN-γ (10 ng/mL), or medium containing IL-4 (20 ng/mL) and IL-13 (10 ng/mL) and incubated for an additional 72 hours prior to sample collection (as indicated for days 4-6). Luciferase activity is expressed as the percent activity per cell relative to non-treated (NT) controls after the first 72 hours.
FIG. 10. Elevated p16(Ink4a) and β-galactosidase is regulated by immunomodulatory agents in macrophages, but not in mesenchymal SCs. Primary cultures of adipose-derived mesenchymal stromal cells (AdMSC) isolated from p16^Ink4a/Luc mice were irradiated (20 Gy) and cultured for 10 days for senescence induction. Mock irradiated cells were used as a proliferating cell control. Response of senescent and proliferating AdMSCs to immunomodulatory agents were compared to that of peritoneal lavage cells elicited by our alginate bead model. A-D) Dose-response curves of LPS (top panels: […]) and Poly(I:C) (bottom panels: C&D) on p16(Ink4a) promoter-dependent luciferase activity (left panels: A&C) and beta-galactosidase activity measured via 4-MUG hydrolysis (right panels: B&D) after 72 hr treatment. […]
FIG. 13. […] SAM viability was determined using the resazurin cell viability assay (Res). […]

Experiment [2] deals with p16(Ink4a) expression in macrophages. The experiment can be described thus: Immunomodulators in vivo in p16Ink4a/Luc mice bearing alginate-encapsulated cells. Set-up: species or system mouse. The following applies: for in vivo bioluminescence / elevated p16(Ink4a) expression: after 10 day induction of bioluminescence, Poly(I:C) 2 and 10 mg/kg intraperitoneally. The procedure: Mice were injected intraperitoneally with a 200 μl solution of 15 mg/mL D-luciferin potassium salt (Syd Labs; Boston, Mass.) in D-PBS without calcium and magnesium. At 10 minutes post-injection, isoflurane-anesthetized mice were placed into the IVIS Spectrum in vivo bioluminescent imaging system (PerkinElmer; Waltham, Mass.) for detection of luciferase activity (60-second exposure). Bioluminescence in p16^LUC mice was quantified as total flux (p/s) of luminescent signal from the abdomen using via Living Image® software.
We next investigated whether p16(Ink4a) expression was susceptible to M1-mediated regulation in vivo using immunotherapeutic agent Poly(I:C). Upon intraperitoneal injection of alginate-encapsulated cells, p16^Iak4a/Luc mice accumulate luciferase-positive macrophages that can be monitored in vivo via the IVIS imaging system. […] Further, treatment with Poly(I:C) had no effect on β-galactosidase activity nor viability (>95%) of lavage cells, consistent with in vitro data.

[3] abbreviates: light or radiation study, senescent RDF, irradiation-induced, 72 hour exposure, resazurin, read-out: IC50 RDFsen.irr.
Setting [4] is: proliferating RDF, 72 hour exposure, resazurin, read-out: IC50 RDFprolif.
The mark [5] stands for this setting: senescent RDF, bleomycin-induced, 72 hour exposure, resazurin, read-out: IC50 RDFsen.bleo.

As to `CCOC(=O)c1sc(SCc2ccccc2)c2c1CC(c1ccc(OC)cc1)C/C2=N\O` (stereo not drawn) [Example A1.1], the “Selectivity (Prolif/Sen)” value is greater than 4.6 in experiment [1] (RDF, Bleomycin) and greater than 4.4 in experiment [1] (RDF, Irradiation). In addition, the IC50 is 4.5 µM in experiment [1] (light or radiation study, RDF, senescence induction: Irradiation, read-out: Activity against Senescent Cells (IC50; uM)); less than 5 µM in experiment [1] (setting [3]); greater than 20 µM in experiment [1] (RDF proliferating, read-out: Activity against Proliferating Cells (IC50; uM)); 4.4 µM in experiment [1] (RDF, senescence induction: Bleomycin, read-out: Activity against Senescent Cells (IC50; uM)); greater than 20 µM in experiment [1] (setting [4]); less than 10 µM in experiment [1] (setting [5]).

In the case of `COc1ccc(C2CC(=NO)c3c(SCc4ccccc4)sc(C(=O)NCc4cccc(F)c4)c3C2)cc1` (stereo not drawn) [Example A1.6, 3-(Benzylthio)-N-(3-fluorobenzyl)-4-(hydroxyimino)-6-(4-methoxyphenyl)-4,5,6,7-tetrahydrobenzo[c]thiophene-1-carboxamide], the values for the half-inhibitory concentration (IC50) in experiment [1] (setting [3]), in experiment [1] (setting [4]) and in experiment [1] (setting [5]) were less than 5 µM, greater than 20 µM and less than 5 µM, respectively. Further, the SAM cell viability entry in the experiment with SAMs (resazurin / CyQuant, listed as TA-4812) is “no effect”; in the experiment with SAMs (resazurin / CyQuant, listed as TA-04812-1), “little to no effect”.

As for `O=C(NCCCc1cn[nH]c1)c1ccc(-c2ccncc2)c(C#Cc2ccc(F)cc2)c1` [OT-82], the “toxicity to SAMs in combination with inducers of the M1-phenotype (LPS and interferon-gamma)” value in the experiment with SAMs (resazurin) was “toxic”. Moreover, the “toxicity to SAMs, OT-82 by itself” value with SAMs (resazurin / CyQuant, 500 nM) is reported as “low SAM toxicity; also recorded: almost non-toxic; also recorded: not toxic”.

As for IFN-α, in experiment [2], the “in vivo bioluminescence / elevated p16(Ink4a) expression” value was “abrogates”.

Consider Poly(I:C), for which the “in vivo bioluminescence / elevated p16(Ink4a) expression” value in experiment [2] is on record as “complete abrogation of signal”. Further, in experiment [2] (mouse, in vivo), the “viability of lavage cells” value is reported as greater than 95% and the “β-galactosidase activity of lavage cells” value is “no effect”. Besides, the “proportion of CD11b+ F4/80+ macrophages” value in experiment [2] (peritoneal lavage) is “no difference”. For the same compound, the “decrease in luciferase activity per lavage cell vs non-treated controls” value in experiment [2] (peritoneal lavage cells) was greater than 6 fold.

The IC50 is the midpoint of a concentration-inhibition curve.
